# Measured values from ChEMBL document CHEMBL1129015, “The design, binding affinity prediction and synthesis of macrocyclic angiotensin II AT1 and AT2 receptor antagonists” (Bioorg Med Chem Lett, 1996).
# Columns and labels:
# [1] = target: T1, Type-1 angiotensin II receptor (Oryctolagus cuniculus, UniProt P34976); assay: Inhibition of [125I]-Sar1-Ile8-Ang II binding to Angiotensin II receptor type 1 from rabbit aorta
# T1 sequence (P34976 whole entry): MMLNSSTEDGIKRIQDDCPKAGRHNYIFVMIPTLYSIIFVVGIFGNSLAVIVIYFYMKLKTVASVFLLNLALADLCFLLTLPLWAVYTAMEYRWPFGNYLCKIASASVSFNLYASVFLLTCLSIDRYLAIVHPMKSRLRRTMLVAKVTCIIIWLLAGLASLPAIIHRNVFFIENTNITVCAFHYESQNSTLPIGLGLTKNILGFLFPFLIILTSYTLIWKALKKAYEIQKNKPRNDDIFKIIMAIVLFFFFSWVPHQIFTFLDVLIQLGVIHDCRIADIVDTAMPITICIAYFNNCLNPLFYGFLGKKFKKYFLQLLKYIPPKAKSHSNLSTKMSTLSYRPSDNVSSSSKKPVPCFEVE
# [2] = target: T2, Type-2 angiotensin II receptor (Rattus norvegicus, UniProt P35351); assay: Inhibition of [125I]-Sar1-Ile8-Ang II binding to rat midbrain Angiotensin II receptor type 2
# T2 sequence (P35351 whole entry): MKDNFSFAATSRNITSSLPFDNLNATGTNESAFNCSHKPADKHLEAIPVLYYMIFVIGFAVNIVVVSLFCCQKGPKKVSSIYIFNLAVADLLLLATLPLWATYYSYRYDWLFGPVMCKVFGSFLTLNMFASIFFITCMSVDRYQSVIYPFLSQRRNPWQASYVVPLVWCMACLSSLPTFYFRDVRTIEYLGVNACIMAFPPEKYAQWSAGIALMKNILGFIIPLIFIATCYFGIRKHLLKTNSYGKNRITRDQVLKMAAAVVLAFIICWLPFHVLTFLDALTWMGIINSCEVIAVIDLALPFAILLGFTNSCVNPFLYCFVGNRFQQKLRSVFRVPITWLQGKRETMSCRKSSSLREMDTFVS
Compound,IC50 [1] [nM],IC50 [2] [nM]
CCCc1nc2ccc3cc2c(=O)n1Cc1ccc(cc1)-c1ccccc1S(=O)(=O)NC(=O)CCCCCN3C(=O)OCc1ccccc1,23,4000
CCCc1nc2ccc(NC(=O)NC(C)C)cc2c(=O)n1Cc1ccc(-c2ccccc2S(=O)(=O)NC(C)=O)cc1,8.8,630
CCCc1nc2ccc(NC(=O)c3ccccc3)cc2c(=O)n1Cc1ccc(-c2ccccc2-c2nnn[nH]2)cc1,0.4,3000
CCCc1ccc2c(c1)-c1ccc(cc1)Cn1c(CCC)nc3ccc(cc3c1=O)N(C(=O)OCc1ccccc1)CCCCCCCC(=O)NS2(=O)=O,30,20
CCCc1nc2ccc(NC(=O)NC(C)C)cc2c(=O)n1Cc1ccc(-c2ccccc2S(=O)(=O)NC(=O)c2ccccc2)cc1,0.9,18
CCCCCN(C(=O)c1ccccc1)c1ccc2nc(CCC)n(Cc3ccc(-c4ccccc4S(=O)(=O)NC(=O)c4ccccc4)cc3)c(=O)c2c1,11,350
CCCc1nc2ccc3cc2c(=O)n1Cc1ccc(cc1)-c1ccccc1S(=O)(=O)NC(=O)CCCCCCCN3,0.3,200
CCCc1ccc2c(c1)-c1ccc(cc1)Cn1c(CCC)nc3ccc(cc3c1=O)NCCCCCCCC(=O)NS2(=O)=O,3.9,24
CCCc1nc2ccc3cc2c(=O)n1Cc1ccc(cc1)-c1ccccc1S(=O)(=O)NC(=O)CCCCCCCN3C(=O)c1ccccc1,1.3,49
CCCc1nc2ccc3cc2c(=O)n1Cc1ccc(cc1)-c1ccccc1S(=O)(=O)NC(=O)CCCCCCCN3C(=O)OCc1ccccc1,1.5,75
